Assay results taken from US9669009B2, “Rapid disperse dosage form containing levetiracetam” (APRECIA PHARMACEUTICALS COMPANY, priority 2013, dated 2017).
“Also recorded” adds a separate entry of the source. Read-outs that look alike come from different tables or passages of the source.

What was measured:
[1] = Evaluation of antioxidants for LEV stability in raw tablet compositions (Example 6)
Description: The following procedures were used to identify the preferred antioxidant(s) suitable stabilizing LEV against oxidative degradation.
A powder blend containing the following ingredients in the amounts indicated was prepared.
A printing fluid containing the following ingredients in the amounts indicated was prepared.
For example, the amount of antioxidant would be “(IIG daily limit)/2” for a 1000 mg tablet administered twice daily. It should be understood that IIG limits are periodically changed by regulatory agencies. Accordingly, the limits specified below should be considered approximations and not as absolute limits to the amount of antioxidant that can be included in a dosage form.
The antioxidant was mixed with 6 mL of printing fluid. That mixture was then mixed with 30 g of powder blend to form a raw tablet composition, each of which was exposed to the following conditions: Condition 1—store composition at 70 C in tightly sealed glass jar; Condition 2—store composition at 50 C in loosely covered glass jar; and Condition 3—store composition at 40 C/75% RH in open glass jar.
The samples were subsequently analyzed by HPLC/MS and the identity of two key degradants was determined by comparison to standards. The key degradants were levetiracetam acid and oxo-levetiracetam.

[2] = Oxidative degradation of LEV in 3DP dosage form, HPLC/MS; type: physicochemical; conditions: antioxidant absent, oxidative excipient (povidone or silica with peroxide impurity) present
Description: The stability of LEV to oxidative degradation when included in a 3DP dosage form of the invention was determined by exposing finished dosage forms to heat. The formation of degradants was observed and monitored by HPLC/MS as detailed below. […] Povidone and silica, however, are important functional ingredients. Accordingly, the invention provides a stable rapidly dispersible dosage form comprising LEV, oxidative excipient, antioxidant, binder and disintegrant, wherein the matrix comprises 0.1% by wt or less of an oxidative degradant of LEV after storage for six months at 21° C. and 75% RH.
The following procedures were used to analyze three-dimensionally printed solid porous orodispersible matrices and in support of drug-stability studies.
Samples were prepared by transferring approximately 380 mg of sample to a 50-mL volumetric flask with 30 mL of Diluent. The sample was sonicated for 10 minutes then filled to volume with Diluent. A portion was filtered through a 0.22 μm nylon filter, discarding the first 3-5 mL.
Mass spectrophotometry was conducted by directly infusing a sodium formate solution into the mass spectrometer through the lock spray at 100 μL/min using a syringe pump. The sodium formate peak at m/z 158.9646126 was used for accurate mass analysis. The accurate masses were used for elemental composition analysis using the MassLynx software. […]

[3] = cited from earlier work
[4] = accelerated (60° C.) stress: acidic, alkaline, aqueous, oxidative, thermal or photo; Shah 2012; cited from earlier work
[5] = antioxidant at half IIG daily limit in raw tablet composition, 70 C sealed, 50 C loosely covered, 40 C/75% RH open

With `COc1ccc(O)c(C(C)(C)C)c1` [BHA, Butylated hydroxyanisole] the “stability against oxidative degradation and color formation” value (“stability” below) [1, 5] was “improved stability against oxidative degradation and against color formation; also recorded: best results”.
For `CC[C@@H](C(N)=O)N1CCCC1=O` [Levetiracetam, (S)-2-(2-oxopyrrolidin-1-yl)butanamide], the “oxidative degradation of LEV in 3DP dosage form exposed to heat” value [2] is listed as “undergoes oxidative degradation to form oxo-levetiracetam”, the solubility in acetonitrile ([3]; acetonitrile) is listed as 5.7 g/100 mL and the solubility in chloroform ([3]; chloroform) is listed as 65.3 g/100 mL. For the same molecule, the solubility in ethanol ([3]; ethanol) was 16.5 g/100 mL, the solubility in methanol ([3]; methanol) was 53.6 g/100 mL and the solubility in n-hexane ([3]; n-hexane) was “practically insoluble”. The solubility in water ([3]; water) was 104.0 g/100 mL and the degradation under stress [4] was “substantial degradation”.
In the case of `Cc1c(C)c2c(c(C)c1O)CC[C@@](C)(CCC[C@H](C)CCC[C@H](C)CCCC(C)C)O2` [Vitamin E, Alpha-tocopherol], the “stability” value [1] is reported as “improved stability against oxidative degradation and against color formation”.
With `CSCC[C@H](N)C(=O)O` [methionine, Methionine] the “stability” value [1] was “improved stability against oxidative degradation and against color formation”.
For `O=S([O-])O.[Na+]` [sodium bisulfite, Sodium bisulfite], the “stability” value [1, 5] was “improved stability against oxidative degradation and against color formation” and the “stability” value ([1]; antioxidant at half IIG daily limit in raw tablet composition, 70 C sealed, 50 C loosely covered, 40 C/75% RH open, listed as Sodium bisulfite) was “best results”.
With `O=S([O-])[O-].[Na+].[Na+]` [sodium sulfite, Sodium sulfite] the “stability” value [1, 5] was “improved stability against oxidative degradation and against color formation; also recorded: best results”.
